Measured values from patent US20090208620A1, “Alimentary Compositions and Methods For Metabolic Modulation” (VDF FUTURECEUTICALS, INC., priority 2003, published 2009).
Values joined by “and” are separate entries in the source; they are usually repeats but may differ in a detail not shown here. Equal values may be shown once.

Legend:
[1] = system: rat epitrochlearis muscle; experiment: Glucose uptake in rat epitrochlearis muscle; format: cell-based; set-up: unit not given here; settings: 60 minute incubation at 37 C, 10 minute transport at 30 C; for Glucose uptake, Raw: single values, listed as K
Method: Glucose uptake in rat epitrochlearis muscle was determined following a protocol substantially as described by Brozinick, J. T., and Birnbaum, M. J. (1998) J. Biol. Chem. 273(24), […]. Results are listed in Tables 5 and 6, wherein data of Table 5 were obtained for 60 minute incubations (at 37 C), 10 minute transport at (30 C) and data of Table 6 were obtained for 60 minute incubations (at 37 C), 10 minute transport at (30 C) of the compounds as indicated (K is kinetin, AG is N2-acetylguanine).

GLUT-4 = experiment: Western immunoblot for GLUT-4 protein level in C2C12 cells; format: cell-based, mouse
Method: (§1) The levels of Glut-4, activated AMPK and activated Akt were measured in mouse muscle cells C2C12 (from ATTC) and in primary culture of human skeletal muscle cells (Clonetics, Inc.) using Western immunoblotting. C2C12 cells were plated at 1.5×1-exp5 cells per mL/well (12-well plate) in standard cell culture medium (DMEM supplemented with 10% fetal bovine serum (FBS), 25 mM glucose, 20 mM Hepes, 4 mM glutamine and 2 mM sodium pyruvate. 48 hrs after the plating, medium was changed to differentiation medium (DMEM supplemented with 5 mM of glucose and 0.5% of FBS) for next 3-4 days to stimulate the formation of myotubes. Three hours before the treatment with selected agents, cells were washed with PBS and transferred to PBS supplemented with 5 mM of glucose.
Analysis of C2C12 cells for the level of activated AMPK, Akt and the level of GLUT-4 was performed in the same experimental system. The cells were treated for 30 minutes at 37° C. After the treatment, the cells were washed with ice-cold PBS and lysed with 80 μl of lysis buffer/well (M-PER buffer from Pierce supplemented with protease and phosphatase inhibitor mix (Calbiochem) for 10 minutes on ice. Next, the plates were transferred to −20° C. to improve the lysis of the cells. Next cells were sonicated for 5 minutes and lysate was transferred to Eppendorf tubes and centrifuged at 14,000 rpm for 10 minutes. Supernatants were collected in fresh Eppendorf tubes and kept on ice to measure the amount of total proteins. 3 μl of each lysate was used to measure the protein concentration using standard Bradford method (Biorad). Subsequently, 20 μg per sample of sample protein was used for Western analysis using NuPage 10% Bis/Tris gels (Invitrogen). After exposure of membranes to primary and secondary antibodies AMPK, AKT or Glut-4 was detected using ECL-Plus (Amersham) following producer's instruction. Chemilumiscent signals were detected by using ChemiDoc system from Biorad. Intensity of detected signals were analyzed and measured using Quantity One software (Biorad). Alternatively, the level of phosphorylated AMPK was detected using ECL kit from Amersham and short exposure to Kodak films.
Experimental setup: Cell Culture was followed by treatment with selected contemplated compounds, which was followed by cell lysis and western blot analysis for AMPK, Akt, GLUT4, total AMPK, and total Akt. Signals were acquired accordingly. Primary antibodies used in these studies are the following: Anti-phospho-AMPK (Thr172), mouse, rabbit IgG, from Cell Signaling, #2531; Anti-phospho-Akt (Ser473), mouse, rabbit IgG, Cell Signaling, #9271; Anti-Glut-4, mouse, rabbit IgG, Calbiochem, #400064; Anti-AMPK (total), mouse, rabbit IgG, Cell Signaling, #2532; Anti-Akt (total), mouse, rabbit IgG, Cell Signaling, #9272.
The effects of kinetin, N^2-Acetyl-Guanosine and N^2-Acetyl-Guanine on GLUT-4 protein level in C2C12 cells were investigated following the same experimental design as described for AMPK and AKT. Anti-Glut-4 antibody used in this study was from Calbiochem. […] Table 3 refers to multiple independent experiments where multiple identical concentrations for the same reagents are indicated.

activated Akt = experiment: Western immunoblot for activated (phospho-Ser473) Akt in muscle cells; format: cell-based, mouse; settings: cells treated 30 minutes at 37° C
Method: as §1
(§2) Human skeletal muscle cells (HSKM) were cultured in SKBM-2 mediums provided by Clonetics. 48 hrs after cell plating, medium was changed to SKBM medium to stimulate differentiation of the cells to myotubes. When differentiated, the myotubes were transferred to PBS supplemented with 5 mM glucose for three hrs before the treatment.
(§3) Analysis of C2C12 cells for the level of activated AMPK, Akt and the level of GLUT-4 was performed in the same experimental system. The cells were treated for 30 minutes at 37° C. […] Subsequently, 20 μg per sample of sample protein was used for Western analysis using NuPage 10% Bis/Tris gels (Invitrogen). After exposure of membranes to primary and secondary antibodies AMPK, AKT or Glut-4 was detected using ECL-Plus (Amersham) following producer's instruction. Chemilumiscent signals were detected by using ChemiDoc system from Biorad. Intensity of detected signals were analyzed and measured using Quantity One software (Biorad). Alternatively, the level of phosphorylated AMPK was detected using ECL kit from Amersham and short exposure to Kodak films.
(§4) Experimental setup: Cell Culture was followed by treatment with selected contemplated compounds, which was followed by cell lysis and western blot analysis for AMPK, Akt, GLUT4, total AMPK, and total Akt. Signals were acquired accordingly.

activated AMPK = experiment: Western immunoblot for activated (phospho-Thr172) AMPK in muscle cells; format: cell-based, mouse; settings: cells treated 30 minutes at 37° C
Method: as §1, §2, §3, §4

muscle cells = experiment: Total glucose uptake in vitro with fluorescent glucose analog; format: cell-based; settings: for AVERAGE (N = 3) fluorescence of fluorescent glucose in the cells / FOLD CHANGE IN TOTAL GLUCOSE UPTAKE (OVER CONTROL): 30 minutes at 37 C
Method: Total glucose uptake was measured using fluorescent glucose analog from Molecular Probes. Briefly, muscle cells were treated with kinetin, N^2-Acetyl-Guanosine and N^2-Acetyl-Guanine for 30 minutes at 37 C first and subsequently, these cells were exposed to 500 μM of fluorescent glucose analog for 5 minutes at room temperature. Next, cells were washed twice with cold Krebs-Hepes buffered solution and fixed in 70% ethanol in water. Fluorescence of fluorescent glucose in the cells was measured using fluorescent plate reader at 480/530 nm (excitation/emission). […] Table 4 refers to multiple independent experiments where multiple identical concentrations for the same reagents are indicated.

[2] = concentration 0.15 (unit not given)
[3] = concentration 0.3 (unit not given)
[4] = concentration 0.75 (unit not given)
[5] = concentration 1.5 (unit not given)
[6] = concentration 3.75 (unit not given)
[7] = concentration 7.5 (unit not given)

Structure (SMILES): c1coc(CNc2ncnc3[nH]cnc23)c1 [Kinetin, kinetin]
- Glucose uptake, Mean ([1]; 0.5 uM): 0.99
- Glucose uptake, Mean ([1]; 1 uM (Table 6)): 1.23
- Glucose uptake, Raw ([1]; 1 uM (Table 6)): 1.54 and 0.95 and 1.33 and 1.10 and 1.23
- Glucose uptake, Mean ([1]; 2 uM): 0.70
- Glucose uptake, Raw ([1]; 2 uM): 0.57 and 0.90 and 0.64 and 0.81
- effect on GLUT-4 protein level (in words) (GLUT-4): potently increase GLUT-4 protein level
- FOLD CHANGE IN GLUT-4 LEVEL (OVER CONTROL) (GLUT-4; 0.3 microM): 3.45 fold and 3.95 fold
- FOLD CHANGE IN GLUT-4 LEVEL (OVER CONTROL) (GLUT-4; 0.8 microM): 3.46 fold and 2.36 fold
- FOLD CHANGE IN GLUT-4 LEVEL (OVER CONTROL) (GLUT-4; 0.9 microM): 4.00 fold
- FOLD CHANGE IN GLUT-4 LEVEL (OVER CONTROL) (GLUT-4; 2.0 microM): 1.88 fold
- FOLD CHANGE IN GLUT-4 LEVEL (OVER CONTROL) (GLUT-4; 2.7 microM): 3.88 fold
- FOLD CHANGE IN GLUT-4 LEVEL (OVER CONTROL) (GLUT-4; 8.1 microM): 1.11 fold
- FOLD AKT ACTIVATION (OVER CONTROL) (activated Akt; 0.3 microM): 5.08 fold
- FOLD AKT ACTIVATION (OVER CONTROL) (activated Akt; 0.8 microM): 3.17 fold
- FOLD AKT ACTIVATION (OVER CONTROL) (activated Akt; 0.9 microM): 3.81 fold
- FOLD AKT ACTIVATION (OVER CONTROL) (activated Akt; 2.0 microM): 3.35 fold
- FOLD AKT ACTIVATION (OVER CONTROL) (activated Akt; 2.7 microM): 3.21 fold
- FOLD AKT ACTIVATION (OVER CONTROL) (activated Akt; 5.0 microM): 2.07 fold
- FOLD AKT ACTIVATION (OVER CONTROL) (activated Akt; 8.1 microM): 0.24 fold
- FOLD AMPK ACTIVATION (OVER CONTROL) (activated AMPK; 0.1 microM): 5.30 fold
- FOLD AMPK ACTIVATION (OVER CONTROL) (activated AMPK; 0.3 microM): 8.12 fold
- FOLD AMPK ACTIVATION (OVER CONTROL) (activated AMPK; 0.8 microM): 3.60 fold and 2.40 fold
- FOLD AMPK ACTIVATION (OVER CONTROL) (activated AMPK; 1.0 microM): 19.50 fold
- FOLD AMPK ACTIVATION (OVER CONTROL) (activated AMPK; 2.0 microM): 2.70 fold
- FOLD AMPK ACTIVATION (OVER CONTROL) (activated AMPK; 3.0 microM): 14.50 fold
- FOLD AMPK ACTIVATION (OVER CONTROL) (activated AMPK; 10.0 microM): 12.80 fold
- effect on glucose uptake in muscle cells in vitro (in words) (muscle cells): potently enhance glucose uptake in muscle cells in vitro
- AVERAGE (N = 3) fluorescence of fluorescent glucose in the cells (muscle cells; [2]): 88.6 +/− 0.9
- FOLD CHANGE IN TOTAL GLUCOSE UPTAKE (OVER CONTROL) (muscle cells; [2]): 1.88 fold
- AVERAGE (N = 3) fluorescence of fluorescent glucose in the cells (muscle cells; [3]): 86.0 +/− 0.7
- FOLD CHANGE IN TOTAL GLUCOSE UPTAKE (OVER CONTROL) (muscle cells; [3]): 2.97 fold
- AVERAGE (N = 3) fluorescence of fluorescent glucose in the cells (muscle cells; [4]): 103.3 +/− 2.1
- FOLD CHANGE IN TOTAL GLUCOSE UPTAKE (OVER CONTROL) (muscle cells; [4]): 2.19 fold
- AVERAGE (N = 3) fluorescence of fluorescent glucose in the cells (muscle cells; [5]): 110.6 +/− 2.3
- FOLD CHANGE IN TOTAL GLUCOSE UPTAKE (OVER CONTROL) (muscle cells; [5]): 3.82 fold
- AVERAGE (N = 3) fluorescence of fluorescent glucose in the cells (muscle cells; [6]): 102.6 +/− 4.7
- FOLD CHANGE IN TOTAL GLUCOSE UPTAKE (OVER CONTROL) (muscle cells; [6]): 2.18 fold
- AVERAGE (N = 3) fluorescence of fluorescent glucose in the cells (muscle cells; [7]): 56.6 +/− 1.4
- FOLD CHANGE IN TOTAL GLUCOSE UPTAKE (OVER CONTROL) (muscle cells; [7]): 1.95 fold
